Assay results published in patent publication US20130316389A1, “Method and System for Determining Characteristics of an Embryo and Uses Thereof” (University of Plymouth, priority 2010, published 2013).

Test system: zebra fish (Danio rerio) embryos
Experiment: Movement pattern analysis of zebra fish embryos subjected to challenge (Example 5)
Type: in vivo
Conditions: 30 minutes exposure
Description: Images of the movement of each subject embryo were recorded for a period of ten minutes. The imaging apparatus comprised a 4 megapixel monochrome camera (AVT Pike 421) operating at 15 Hz with a 1600×1200 pixel region of interest, connected to a zooming optic lens system (Keyence VHZ100R).
This temporal tracking technique first extracts corner features from each image. Thereafter, image features are registered from frame to frame and assigned a velocity variance to each, A feature with a high velocity variance was rejected, as indicating inaccurate tracking. The remaining features were used in subsequent analysis of the movement pattern of the embryo.
Four parameters of motion of the subject embryo were extracted from each frame of the image data and compared with the corresponding parameters in the preceding frames. The four parameters of motion were positive and negative angles of rotation, and Rho-theta angular changes to the centre of mass for the embryo. The centre of mass of the embryo was determined by determining the X and Y coordinates of every point of motion detected. The X and Y coordinates were summed to provide mean values for X and Y.
The resulting data were analysed for spectral content using the Fast Discrete Fourier Transform (FDFT), to generate data relating to the frequency of motion of the subject embryo. […] 18 frequency bins were analysed from the FDFT analysis. […]

SMILES: CCO [ethanol]
- movement pattern (optic flow) compared with the control embryos (1.5% ethanol in deionised water, stage 19 and 21.5 hpf embryos, 27° C): more peaks in positive and negative rotational movement and X and Y displacement of the centre of mass
- distinction from control embryos by ANOSIM analysis of movement patterns (1.5% ethanol, stage 33 embryos): readily distinguished from the stage 33 control embryos
